Article PMC4018225 (Biopharmaceutics & drug disposition, 2013)
Like-named read-outs stand apart in the source and are kept apart here. Marks after values point to notes of the source that are not given here.

Tests used:
[1] = Reference pharmacokinetics of CsA and TAC in nonHIV transplant patients; format: in vivo, human; conditions: nonHIV tx; average for both PI time periods
[2] = format: in vivo, human; conditions: for AUC (weight and dose normalized) / TAC V/F: median [IQR]; for CL/F: human, whole blood, oral
[3] = nonHIV tx, cited from earlier work
[4] = HIV-1 infected volunteers; concomitant use of EFV or NVP; cited from earlier work
[5] = HIV infected subjects compared to healthy volunteers; cited from earlier work
[6] = co-medication EFV, wk 28, 52, 104
[7] = co-medication NVP, wk 28, 52, 104

C=CC[C@@H]1/C=C(\C)C[C@H](C)C[C@H](OC)[C@H]2O[C@@](O)(C(=O)C(=O)N3CCCC[C@H]3C(=O)O[C@H](/C(C)=C/[C@@H]3CC[C@@H](O)[C@H](OC)C3)[C@H](C)[C@@H](O)CC1=O)[C@H](C)C[C@@H]2OC [TAC, tacrolimus]
TAC CL/F Ratio to PI [1]: (10.1) ^*
TAC CL/V Ratio to PI [1]: (1.6) ^*
TAC V/F Ratio to PI [1]: (6.2) ^*
AUC (weight and dose normalized) ([2]; +EFV, wks 2–12): 2170 [936–3261] ng*hr/mL/mg/kg
AUC (weight and dose normalized) ([2]; +EFV, wks 28–104): 1911 [1423–3071] ng*hr/mL/mg/kg
AUC (weight and dose normalized) ([2]; +NVP, wks 2–12): 3644 [3115–5157] ng*hr/mL/mg/kg
AUC (weight and dose normalized) ([2]; +NVP, wks 28–104): 4220 [2703–6229] ng*hr/mL/mg/kg
AUC (weight and dose normalized) ([2]; +PI, wks 2–12): 24996 [18205–41601] ng*hr/mL/mg/kg
AUC (weight and dose normalized) ([2]; +PI, wks 28–104): 34653 [17208–42250] ng*hr/mL/mg/kg
TAC CL/F Ratio to PI [2, 6]: 18.1
TAC CL/V [2, 6]: 0.068 h⁻¹
TAC CL/V Ratio to PI [2, 6]: 2.33
TAC V/F Ratio to PI [2, 6]: 7.78
TAC V/F [2, 6]: 7.70 [6.22–10.70] L/kg
TAC CL/F Ratio to PI ([2]; co-medication EFV, wks 2–12): 11.5
TAC CL/V ([2]; co-medication EFV, wks 2–12): 0.074 h⁻¹
TAC CL/V Ratio to PI ([2]; co-medication EFV, wks 2–12): 1.72
TAC V/F Ratio to PI ([2]; co-medication EFV, wks 2–12): 6.66
TAC V/F ([2]; co-medication EFV, wks 2–12): 6.26 [5.42–10.91] L/kg
TAC CL/F Ratio to PI [2, 7]: 8.72
TAC CL/V [2, 7]: 0.031 h⁻¹
TAC CL/V Ratio to PI [2, 7]: 1.07
TAC V/F Ratio to PI [2, 7]: 8.17
TAC V/F [2, 7]: 8.09 [3.46–15.14] L/kg
TAC CL/F Ratio to PI ([2]; co-medication NVP, wks 2–12): 6.85
TAC CL/V ([2]; co-medication NVP, wks 2–12): 0.056 h⁻¹
TAC CL/V Ratio to PI ([2]; co-medication NVP, wks 2–12): 1.31
TAC V/F Ratio to PI ([2]; co-medication NVP, wks 2–12): 5.20
TAC V/F ([2]; co-medication NVP, wks 2–12): 4.89 [2.74–6.16] L/kg
TAC CL/F Ratio to PI ([2]; co-medication PI, wk 28, 52): 1
TAC CL/V ([2]; co-medication PI, wk 28, 52): 0.029 h⁻¹
TAC CL/V Ratio to PI ([2]; co-medication PI, wk 28, 52): 1
TAC V/F Ratio to PI ([2]; co-medication PI, wk 28, 52): 1
TAC V/F ([2]; co-medication PI, wk 28, 52): 0.99 [0.31–1.19] L/kg
TAC CL/F Ratio to PI ([2]; co-medication PI, wks 2–12): 1
TAC CL/V ([2]; co-medication PI, wks 2–12): 0.043 h⁻¹
TAC CL/V Ratio to PI ([2]; co-medication PI, wks 2–12): 1
TAC V/F Ratio to PI ([2]; co-medication PI, wks 2–12): 1
TAC V/F ([2]; co-medication PI, wks 2–12): 0.94 [0.64–1.29] L/kg
CL/F ([2]; 0.003 mg/kg): 0.483 mL/min/kg
CL/F ([2]; 0.007 mg/kg): 0.667 mL/min/kg
CL/F ([2]; 0.046 mg/kg): 8.77 mL/min/kg
CL/F ([2]; 0.058 mg/kg): 7.68 mL/min/kg
TAC apparent volume of distribution ratio, PI compared to EFV ([2]; in vivo): 0.15
TAC apparent volume of distribution ratio, PI compared to NVP ([2]; in vivo): 0.19
increase in drug exposure on concomitant administration with PIs ([2]; in vivo): 2–50 fold
increase in exposure (AUC/dose) in the presence of PIs relative to NNRTIs ([2]; in vivo): more than 10 fold
TAC CL/F ratio, PI compared to EFV ([2]; weeks 2–12): 0.09
TAC CL/F ratio, PI compared to NVP ([2]; weeks 2–12): 0.15
TAC CL/F [3]: 5.83 mL/min/kg
TAC CL/V [3]: 0.058 h⁻¹
TAC V/F [3]: 6 L/kg
AUC (weight and dose normalized) ([3]; wks 2–12): 2000 to 5000 ng·h/mL/mg/kg
AUC (weight and dose normalized) ([3]; wks 28–104): 2000 to 5000 ng·h/mL/mg/kg

Cc1cccc(C)c1OCC(=O)N[C@@H](Cc1ccccc1)[C@@H](O)C[C@H](Cc1ccccc1)NC(=O)[C@H](C(C)C)N1CCCNC1=O [lopinavir]
increase in apparent oral clearance [4]: 39%

Cc1ncc2n1-c1ccc(Cl)cc1C(c1ccccc1F)=NC2 [midazolam]
decrease in clearance [5]: ~ 50%
